Measurements as given in the supplement of paper PMC13380429.
± gives the standard deviation of the averaged measurements.

Columns and labels:
Settings in all cases: 72 h
Vero E6 [1] = test: cell viability relative to DMSO; higher = less toxic
U2OS [2] = test: as above
Calu-3 [3] = test: as above
HepG2 [4] = test: as above
Caco-2 [5] = test: as above
Vero E6 [6] = test: drug sensitivity score (DSS) for viability; higher = more toxic; extreme values may be limits of the assay
U2OS [7] = test: as above
Calu-3 [8] = test: as above
HepG2 [9] = test: as above
Caco-2 [10] = test: as above
Vero E6 [11] = test: relative viability EC50 (midpoint between 100% and the lowest measured viability); higher = less toxic
U2OS [12] = test: as above
Calu-3 [13] = test: as above
HepG2 [14] = test: as above
Caco-2 [15] = test: as above

Structure (SMILES) | cell viability (Vero E6 [1]; 1 nM) [%] | cell viability (Vero E6 [1]; 10 nM) [%] | cell viability (Vero E6 [1]; 100 nM) [%] | cell viability (Vero E6 [1]; 1000 nM) [%] | cell viability (Vero E6 [1]; 10000 nM) [%] | cell viability (U2OS [2]; 1 nM) [%] | cell viability (U2OS [2]; 10 nM) [%] | cell viability (U2OS [2]; 100 nM) [%] | cell viability (U2OS [2]; 1000 nM) [%] | cell viability (U2OS [2]; 10000 nM) [%] | cell viability (Calu-3 [3]; 1 nM) [%] | cell viability (Calu-3 [3]; 10 nM) [%] | cell viability (Calu-3 [3]; 100 nM) [%] | cell viability (Calu-3 [3]; 1000 nM) [%] | cell viability (Calu-3 [3]; 10000 nM) [%] | cell viability (HepG2 [4]; 1 nM) [%] | cell viability (HepG2 [4]; 10 nM) [%] | cell viability (HepG2 [4]; 100 nM) [%] | cell viability (HepG2 [4]; 1000 nM) [%] | cell viability (HepG2 [4]; 10000 nM) [%] | cell viability (Caco-2 [5]; 1 nM) [%] | cell viability (Caco-2 [5]; 10 nM) [%] | cell viability (Caco-2 [5]; 100 nM) [%] | cell viability (Caco-2 [5]; 1000 nM) [%] | cell viability (Caco-2 [5]; 10000 nM) [%] | drug sensitivity score (Vero E6 [6]) | drug sensitivity score (U2OS [7]) | drug sensitivity score (Calu-3 [8]) | drug sensitivity score (HepG2 [9]) | drug sensitivity score (Caco-2 [10]) | relative viability EC50 (Vero E6 [11]) [µM] | relative viability EC50 (U2OS [12]) [µM] | relative viability EC50 (Calu-3 [13]) [µM] | relative viability EC50 (HepG2 [14]) [µM] | relative viability EC50 (Caco-2 [15]) [µM]
CCCCC1(COC(=O)CCC(=O)O)C(=O)N(c2ccccc2)N(c2ccccc2)C1=O [suxibuzone] | 110 | 103 | 103 | 92.4 | 102 | 96.4 | 101 | 96.5 | 102 | 95.5 | 104 | 101 | 95.2 | 99.2 | 95.6 | 122 | 99.5 | 102 | 103 | 94.6 | 87.1 | 104 | 94 | 91.8 | 84.1 | 0 | 0 | 0 | 0 | 0.2 | > 10 | > 10 | > 10 | > 10 | > 10
CC(C)N[C@H]1CCn2c(=O)[nH]c3cccc(c32)[C@@H]1O [zilpaterol] | 98.1 ± 11 | 99.5 ± 0.28 | 94.8 ± 8.6 | 99 ± 7.4 | 104 ± 9.6 | 100 ± 2.1 | 99.1 ± 5.2 | 97.4 ± 3 | 98.6 ± 8.3 | 101 ± 3.3 | 103 ± 1.5 | 97.2 ± 10 | 105 ± 1.1 | 93 ± 3.9 | 97.5 ± 0.42 | 104.9 ± 0.57 | 105.5 ± 0.78 | 104 ± 2 | 95.95 ± 0.071 | 105 ± 3 | 92.8 ± 2.5 | 97.75 ± 0.071 | 100 ± 3.2 | 96.9 ± 2.5 | 95.3 ± 9.4 | 0 | 0 | 0 | 0 | 0 | > 10 | > 10 | > 10 | > 10 | > 10
C=CCn1c(=O)c2cnc(Nc3ccc(N4CCN(C)CC4)cc3)nc2n1-c1cccc(C(C)(C)O)n1 [MK-1775] | 100 | 94.7 | 94.1 | 57.4 | 14.2 | 102 | 95.7 | 97.6 | 21.3 | 5.8 | 108 | 93.4 | 70.8 | 50.9 | 28.8 | 99 | 89.5 | 91.2 | 33.3 | 10.2 | 106 | 99.4 | 96.1 | 35.4 | 25.9 | 9.7 | 14.7 | 13.1 | 13.8 | 12.4 | 0.981 | 0.49 | 0.218 | 0.466 | 0.399
CC[C@@H](CO)NC(=O)[C@@H]1C=C2c3cccc4[nH]cc(c34)C[C@H]2N(C)C1 [methylergometrine] | 106 | 101 | 100 | 102 | 99.8 | 96.2 | 99.1 | 102 | 98.5 | 104 | 96.9 | 98.3 | 99.4 | 86.2 | 91.2 | 98.6 | 102 | 97.5 | 110 | 93.6 | 97.6 | 98 | 96.2 | 96.7 | 99.5 | 0 | 0 | 1.1 | 0 | 0 | > 10 | > 10 | > 10 | > 10 | > 10
C=CC(=O)Nc1cccc(Nc2nc(Nc3ccc(NC4CN(CCF)C4)cc3OC)ncc2C(F)(F)F)c1 [CNX-2006] | 102 | 102 | 101 | 88.7 | 26.7 | 102 | 98.7 | 98.8 | 92.7 | 37.2 | 96.2 | 99.4 | 77.9 | 44.4 | 10 | 99.9 | 110 | 97.3 | 102 | 27.6 | 105 | 100 | 99.1 | 83.7 | 38.3 | 5.9 | 4.7 | 13.3 | 3.8 | 5.9 | 1.97 | 2.21 | 0.464 | 3.34 | 1.51
N#Cc1cc(CN2CCC(Nc3ncnc4sc(Cl)cc34)CC2)ccc1F | 102 | 98.1 | 103 | 102 | 93.4 | 96.9 | 98.6 | 96.3 | 103 | 89.1 | 104 | 106 | 103 | 97.7 | 87.7 | 97.6 | 97.3 | 107 | 78.6 | 29.1 | 98 | 98.7 | 91.2 | 98.8 | 79.7 | 0 | 0 | 0.2 | 7.1 | 0.8 | > 10 | > 10 | > 10 | 1.4 | > 10
C[C@@H]1CN(c2c(F)c(F)c3c(=O)c(C(=O)O)cn(C4CC4)c3c2F)C[C@H](C)N1 [orbifloxacin] | 105 | 110 | 101 | 100 | 94.5 | 99.5 | 97.5 | 95.3 | 97.6 | 101 | 113 | 97.9 | 112 | 92.8 | 107 | 98.2 | 110 | 94.8 | 100 | 92.1 | 110 | 105 | 109 | 103 | 94.6 | 0 | 0 | 0 | 0 | 0 | > 10 | > 10 | > 10 | > 10 | > 10
O=C(O)c1cccnc1C(=O)O [quinolinic-acid] | 108 | 97.4 | 108 | 99.2 | 102 | 98.2 | 103 | 98.6 | 102 | 97.7 | 91.5 | 105 | 97.1 | 100 | 101 | 105 | 99.5 | 97.6 | 102 | 97.8 | 103 | 110 | 96.8 | 103 | 90.3 | 0 | 0 | 0 | 0 | 0 | > 10 | > 10 | > 10 | > 10 | > 10
CCC(N)C(O)c1ccc(O)c(O)c1 (stereo not given) [ethylnorepinephrine] | 93.9 | 102 | 104 | 107 | 112 | 100 | 94.8 | 98.4 | 98.4 | 99.3 | 101 | 99.4 | 108 | 91.9 | 104 | 100 | 110 | 98.7 | 109 | 102 | 93.7 | 95.5 | 103 | 89.9 | 95.1 | 0 | 0 | 0 | 0 | 0 | > 10 | > 10 | > 10 | > 10 | > 10
C=CCSCC1Nc2cc(Cl)c(S(N)(=O)=O)cc2S(=O)(=O)N1 (stereo not given) [althiazide] | 97.8 | 97.2 | 98.8 | 104 | 112 | 96.1 | 95.5 | 100 | 96.9 | 100 | 111 | 94.8 | 112 | 112 | 101 | 109 | 116 | 94.2 | 102 | 107 | 90.1 | 96.8 | 93 | 90.9 | 89.8 | 0 | 0 | 0 | 0 | 0 | > 10 | > 10 | > 10 | > 10 | > 10
NC(=O)c1cnccn1 [pyrazinamide] | 105 | 93.5 | 106 | 95.3 | 104 | 93.7 | 101 | 98 | 104 | 96 | 99.5 | 100 | 94.2 | 104 | 93 | 103 | 103 | 105 | 97.9 | 103 | 104 | 120 | 92.8 | 107 | 89.8 | 0 | 0 | 0 | 0 | 0 | > 10 | > 10 | > 10 | > 10 | > 10
Cc1cc(NC(=O)C2=C(O)c3ccccc3S(=O)(=O)N2C)no1 [isoxicam] | 95.3 | 94.1 | 102 | 102 | 106 | 95.2 | 101 | 98.4 | 105 | 98.3 | 113 | 109 | 97.7 | 98.1 | 104 | 101 | 84.5 | 87.3 | 103 | 100 | 99.4 | 94.8 | 97.9 | 96.2 | 109 | 0 | 0 | 0 | 0 | 0 | > 10 | > 10 | > 10 | > 10 | > 10
CC(C)(C)NC[C@H](O)COc1nsnc1N1CCOCC1 [timolol] | 94.5 | 96.9 | 106 | 99.3 | 104 | 96.6 | 102 | 94.4 | 95.3 | 96.9 | 99.8 | 94.5 | 101 | 100 | 98.1 | 94.9 | 90 | 97.1 | 96.5 | 94.5 | 98.1 | 102 | 97 | 96.9 | 113 | 0 | 0 | 0 | 0 | 0 | > 10 | > 10 | > 10 | > 10 | > 10
O=C(Nc1ccc(F)cc1)N1CCc2ccccc2[C@@H]1c1ccc(C(F)(F)F)cc1 [TC-I-2000] | 108 | 101 | 102 | 103 | 89.7 | 98.7 | 99.2 | 102 | 99.8 | 102 | 107 | 98.3 | 94.6 | 99 | 97.4 | 93.6 | 109 | 99.5 | 101 | 94.2 | 102 | 103 | 95.9 | 98.7 | 93.3 | 0 | 0 | 0 | 0 | 0 | > 10 | > 10 | > 10 | > 10 | > 10
